Experimental data taken from patent publication US8669266B2, “Quinoline-carboxamide derivatives as P2Y12 antagonists” (Sanofi, priority 2007, dated 2014).

These compounds were tested on human platelet rich plasma (assay: Inhibition of human platelet aggregation, "Born"-method in single cuvettes (ADP-induced, platelet rich plasma)). Conditions: Platelet, 0.1 h, human PRP, aggregation induced by ADP, measured over 6 minutes at 37° C.
Type: cell-based
Experimental: Alternatively to a binding assay which measures a compound's ability to bind to the P2Y12 receptor, the effect on cellular function was also determined. This ability of the compound was evaluated in two platelet aggregation assays: in 96-well plates and with the “Born”-method using single cuvettes.
Whole blood was collected from healthy volunteers using 20 ml syringes containing 2 ml of buffered Citrate. The anticoagulated whole blood was transferred into 15 ml polypropylene conical tubes (10 ml per tube). The tubes were centrifuged for 15 minutes at 340×g at RT without using the centrifuge brake. This procedure leads to a pellet of cellular components and a supernatant of platelet rich plasma (PRP). The PRP layer was collected from each tube and pooled for each donor. To avoid carry over of cellular components following centrifugation, approximately 5 ml of PRP was left in the tube. The platelet concentration was determined using a Coulter Counter.
The 15 ml tubes containing the pellet of cellular components were centrifuged again for 10 minutes at 1940×g. This pelleted out most particulate blood constituents remaining, leaving a layer of Platelet Poor Plasma (PPP). The PPP was collected for each donor. The PRP layer, previously set aside, was diluted with PPP to a final concentration of approximately 3×E8 platelets/ml with the PPP.
The human platelet aggregation assay is performed in single use cuvettes using the platelet aggregation profiler (PAP-4 or -8, Bio/Data corporation).
In the assay cuvette 4 μl of test compound at 100× final concentration in DMSO is mixed with 392 μl fresh PRP and incubated for 2 minutes at 37° C. with 1.200 rpm stirring. Following that incubation period, 4 μl of 250 μM ADP is added to the reaction mix. This addition of ADP is sufficient to induce aggregation in the absence of an inhibitor. After that aggregation is measured over 6 minutes at 37° C. with 1.200 rpm stirring. Results of the assay are expressed as % inhibition, and are calculated using maximum aggregation (Tmax) or area under curve (AUC) of the absorbance over 6 minutes.
CCOC(=O)N1CCN(C(=O)[C@H](CCC(=O)O)NC(=O)c2cc(OCC(=O)N3CCC[C@H]3C(=O)NC3CC3)c3ccc(C)cc3n2)CC1 [Example 3, 4-[(S)-4-Carboxy-2-({4-[2-((S)-2-cyclopropylcarbamoyl-pyrrolidin-1-yl)-2-oxo-ethoxy]-7-methyl-quinoline-2-carbonyl}-amino)-butyryl]-piperazine-1-carboxylic acid ethyl ester] was tested, and the IC50 was 180 nM.
CCOC(=O)N1CCN(C(=O)[C@H](CCC(=O)O)NC(=O)c2cc(OCC(=O)N3CCC[C@H]3C(=O)O)c3ccc(C)cc3n2)CC1 [Example 17, 4-[(S)-4-Carboxy-2-({4-[2-((S)-2-carboxy-pyrrolidin-1-yl)-2-oxo-ethoxy]-7-methyl-quinoline-2-carbonyl}-amino)-butyryl]-piperazine-1-carboxylic acid ethyl ester] showed an IC50 of 240 nM.
CCOC(=O)N1CCN(C(=O)[C@H](CCC(=O)O)NC(=O)c2cc(OCC(=O)N3CCC(S(C)(=O)=O)C3)c3ccc(C)cc3n2)CC1 (stereo partly drawn) [Example 18, 4-[(S)-4-Carboxy-2-({4-[2-(3-methanesulfonyl-pyrrolidin-1-yl)-2-oxo-ethoxy]-7-methyl-quinoline-2-carbonyl}-amino)-butyryl]-piperazine-1-carboxylic acid ethyl ester] gave an IC50 of 160 nM.
CCOC(=O)N1CCN(C(=O)[C@H](CCC(=O)O)NC(=O)c2cc(OCC(=O)N3CC[C@H](CO)C3)c3ccc(C)cc3n2)CC1 [Example 50, 4-[(S)-4-Carboxy-2-({4-[2-((S)-3-hydroxymethyl-pyrrolidin-1-yl)-2-oxo-ethoxy]-7-methyl-quinoline-2-carbonyl}-amino)-butyryl]-piperazine-1-carboxylic acid ethyl ester] showed an IC50 of 590 nM.
CCOC(=O)N1CCN(C(=O)[C@H](CCC(=O)O)NC(=O)c2cc(OCC(=O)N3CC(O)CC3C(=O)OC)c3ccccc3n2)CC1 (stereo partly drawn) [Example 71, 4-[(S)-4-Carboxy-2-({4-[2-(4-hydroxy-2-methoxycarbonyl-pyrrolidin-1-yl)-2-oxo-ethoxy]-quinoline-2-carbonyl}-amino)-butyryl]-piperazine-1-carboxylic acid ethyl ester] was tested, and the IC50 was 310 nM.
Work on CCOC(=O)[C@@H]1C[C@@H](O)CN1C(=O)COc1cc(C(=O)N[C@@H](CCC(=O)O)C(=O)N2CCN(C(=O)OCC)CC2)nc2ccccc12 [Example 75, 4-[(S)-4-Carboxy-2-({4-[2-((2S,4R)-2-ethoxycarbonyl-4-hydroxy-pyrrolidin-1-yl)-2-oxo-ethoxy]-quinoline-2-carbonyl}-amino)-butyryl]-piperazine-1-carboxylic acid ethyl ester] yielded an IC50 of 190 nM.
With CCOC(=O)N1CCN(C(=O)[C@H](CCC(=O)O)NC(=O)c2cc(O[C@H](C)C(=O)N3CCC[C@H]3C(=O)NC3CCCC3)c3ccc(C)cc3n2)CC1 [Example 294, 4-[(S)-4-Carboxy-2-({4-[(R)-2-((S)-2-cyclopentylcarbamoyl-pyrrolidin-1-yl)-1-methyl-2-oxo-ethoxy]-7-methyl-quinoline-2-carbonyl}-amino)-butyryl]-piperazine-1-carboxylic acid ethyl ester] the IC50 was 30 nM.
Compound CCOC(=O)N1CCN(C(=O)[C@H](CCC(=O)O)NC(=O)c2cc(OCC(=O)N3CCCC3c3ccco3)c3ccccc3n2)CC1 (stereo partly drawn) [Example 317, 4-[(S)-4-Carboxy-2-({4-[2-(2-furan-2-yl-pyrrolidin-1-yl)-2-oxo-ethoxy]-quinoline-2-carbonyl}-amino)-butyryl]-piperazine-1-carboxylic acid ethyl ester] has an IC50 of 290 nM.
For CCCCOC(=O)N1CCN(C(=O)CNC(=O)c2cc(OCC(=O)N3CCC[C@H]3C(=O)NC3CCC3)c3ccc(C)cc3n2)CC1 [Example 435, 4-[2-({4-[2-((S)-2-Cyclobutylcarbamoyl-pyrrolidin-1-yl)-2-oxo-ethoxy]-7-methyl-quinoline-2-carbonyl}-amino)-acetyl]-piperazine-1-carboxylic acid butyl ester], the IC50 was 30 nM.
CCCCOC(=O)N1CCN(C(=O)[C@H](CCC(=O)O)NC(=O)c2cc(OCC(=O)N3CCC[C@H]3c3ccccc3)c3ccc(C)cc3n2)CC1 [Example 481, 4-[(S)-4-Carboxy-2-({7-methyl-4-[2-oxo-2-((S)-2-phenyl-pyrrolidin-1-yl)-ethoxy]-quinoline-2-carbonyl}-amino)-butyryl]-piperazine-1-carboxylic acid butyl ester] was tested, and the IC50 was 80 nM.
CCCCOC(=O)N1CCN(C(=O)[C@H](CCOC)NC(=O)c2cc(OCC(=O)N3CCC[C@H]3C(=O)NC3CCC3)c3ccc(C)cc3n2)CC1 [Example 521, 4-[(S)-2-({4-[2-((S)-2-Cyclobutylcarbamoyl-pyrrolidin-1-yl)-2-oxo-ethoxy]-7-methyl-quinoline-2-carbonyl}-amino)-4-methoxy-butyryl]-piperazine-1-carboxylic acid butyl ester] was tested, and the IC50 was 120 nM.
For CCCCOC(=O)N1CCN(C(=O)CNC(=O)c2cc(OCC(=O)N3CCC[C@H]3C(=O)NC3CCCC3)c3ccc(C)cc3n2)CC1 [Example 594, 4-[2-({4-[2-((S)-2-Cyclopentylcarbamoyl-pyrrolidin-1-yl)-2-oxo-ethoxy]-7-methyl-quinoline-2-carbonyl}-amino)-acetyl]-piperazine-1-carboxylic acid butyl ester], the IC50 was 20 nM.
With CCCCOC(=O)N1CCN(C(=O)CNC(=O)c2cc(OCC(=O)N3C[C@H](O)C[C@H]3C(=O)NC3CCC3)c3ccc(C)cc3n2)CC1 [Example 689, 4-[2-({4-[2-((2S,4R)-2-Cyclobutylcarbamoyl-4-hydroxy-pyrrolidin-1-yl)-2-oxo-ethoxy]-7-methyl-quinoline-2-carbonyl}-amino)-acetyl]-piperazine-1-carboxylic acid butyl ester] the IC50 was 0.6 nM.
CCCCOC(=O)N1CCN(C(=O)[C@H](CCc2nnn(C)n2)NC(=O)c2cc(OCC(=O)N3CCC[C@H]3C(=O)NC3CCC3)c3ccc(C)cc3n2)CC1 [Example 693, 4-[(S)-2-({4-[2-((S)-2-Cyclobutylcarbamoyl-pyrrolidin-1-yl)-2-oxo-ethoxy]-7-methyl-quinoline-2-carbonyl}-amino)-4-(2-methyl-2H-tetrazol-5-yl)-butyryl]-piperazine-1-carboxylic acid butyl ester] showed an IC50 of 77 nM.

Same assay, conditions: human PRP, aggregation induced by ADP, measured over 6 minutes at 37° C.
For “4-{2-[(7-Methyl-4-{2-oxo-2-[4-(pyrrolidine-1-carbonyl)-piperidin-1-yl]-ethoxy}-quinoline-2-carbonyl)-amino]-acetyl}-piperazine-1-carboxylic acid butyl ester [Example 660]”, the IC50 was 94 nM.

What follows are compounds tested against human P2Y12 receptor (Homo sapiens (Human), UniProt Q9H244) (assay: Human P2Y12 recombinant cell membrane binding assay with 33P 2MeS-ADP). Conditions: CHO cell membranes with recombinant human P2Y12; competition against 33P 2MeS-ADP.
Chain of human P2Y12 receptor (Q9H244 whole entry): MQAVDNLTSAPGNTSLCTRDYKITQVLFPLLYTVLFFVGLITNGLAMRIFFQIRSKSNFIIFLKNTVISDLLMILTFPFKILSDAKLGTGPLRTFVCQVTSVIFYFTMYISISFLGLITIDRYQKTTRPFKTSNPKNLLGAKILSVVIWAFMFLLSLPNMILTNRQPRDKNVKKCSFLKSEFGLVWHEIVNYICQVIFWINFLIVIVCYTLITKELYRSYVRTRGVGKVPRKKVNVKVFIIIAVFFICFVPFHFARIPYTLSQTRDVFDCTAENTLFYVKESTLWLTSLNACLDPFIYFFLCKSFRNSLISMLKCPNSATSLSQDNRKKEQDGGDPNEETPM
Experimental: The ability of the compounds of the formula I to inhibit the P2Y12 receptor can be assessed by determining the concentration of the compound of the formula I that binds to the human P2Y12 Recombinant Cell Membrane Binding Assay with 33P 2MeS-ADP.
Human P2Y12 Recombinant Cell Membrane Binding Assay
The ability of a test compound to bind to the P2Y12 receptor was evaluated in a recombinant cell membrane binding assay. In this competitive binding assay, the test compound competed against a radiolabeled agonist for binding to the P2Y12 receptor, expressed on the cell membrane. Inhibition of binding of the labeled material was measured and correlated to the amount and potency of the test compound.
As source of P2Y12, a membrane preparation was prepared from Chinese Hamster Ovary (CHO) cells with recombinant expression of the human P2Y12 receptor according to standard procedures.
Next, wells were washed four times with 400 μl/well of stop buffer on a plate vacuum. The plate was disassembled and allowed to air dry overnight with the filter side up over night. […] The top of the filter plate was sealed with plastic plate covers. The sealed filter plate were incubated 2 hours at RT. A Microbeta Scintillation Counter was used to measure counts.
Compounds were diluted as 10 mM DMSO stocks and tested in a four-point, five-fold dilution series run in triplicate beginning at 10 μM, final concentration. Data were analyzed using a four-parameter curve fit with a fixed minimum and maximum experimentally defined as the average positive and negative controls on each plate.
In the case of CCOC(=O)[C@@H]1CCCN1C(=O)COc1cc(C(=O)N[C@@H](CCC(=O)O)C(=O)N2CCN(C(=O)OCC)CC2)nc2cc(C)ccc12 [Example 11, 4-[(S)-4-Carboxy-2-({4-[2-((S)-2-ethoxycarbonyl-pyrrolidin-1-yl)-2-oxo-ethoxy]-7-methyl-quinoline-2-carbonyl}-amino)-butyryl]-piperazine-1-carboxylic acid ethyl ester], the IC50 is reported as 132 nM.
CCOC(=O)N1CCN(C(=O)[C@H](CCC(=O)O)NC(=O)c2cc(OCC(=O)N3CCC[C@H]3C(=O)NCC(F)(F)F)c3ccccc3n2)CC1 [Example 121, 4-{(S)-4-Carboxy-2-[(4-{2-oxo-2-[(S)-2-(2,2,2-trifluoro-ethylcarbamoyl)-pyrrolidin-1-yl]-ethoxy}-quinoline-2-carbonyl)-amino]-butyryl}-piperazine-1-carboxylic acid ethyl ester] showed an IC50 of 67 nM.
Compound CCOC(=O)N1CCN(C(=O)[C@H](CCC(=O)O)NC(=O)c2cc(OCC(=O)N3CCC[C@H]3C(=O)NC3CCC3)c3cc(F)c(F)cc3n2)CC1 [Example 196, 4-[(S)-4-Carboxy-2-({4-[2-((S)-2-cyclobutylcarbamoyl-pyrrolidin-1-yl)-2-oxo-ethoxy]-6,7-difluoro-quinoline-2-carbonyl}-amino)-butyryl]-piperazine-1-carboxylic acid ethyl ester] has an IC50 of 65 nM.
